# Experimental data reported in patent publication US20140378460A1, “COMPOSITIONS AND METHODS FOR TREATING NEURODEGENERATIVE DISEASE” (COGNITION THERAPEUTICS, INC., priority 2011, published 2014).
# Where two headings read alike, the source gives them in different places.
# Legend:
# [1] = tested on: SKOV-3 human ovarian cancer cell line; assay: MTS tumor cell viability assay; type: cell-based; conditions: by EC50 relative to siramesine
# Experimental: The cytotoxicity of compounds shown below was determined using the CellTiter96 Aqueous One Solution Assay (Promega, Madison, Wis.). […] The plate was read at 490 nm in a Victor3 plate reader (PerkinElmer Life and Analytical Sciences, Shelton, Conn.). The EC^50 value, defined as the concentration of the sigma ligand required to inhibit cell viability by 50% relative to untreated cells, was determined from the dose response curve for each cell line.
# [2] = tested on: sigma-2 receptor; conditions: 1 μM each; 18.4 nM [3H]-RHM-1
# [3] = molecular target: D2 (Homo sapiens, UniProt P14416); conditions: cited from earlier work
# [4] = tested on: alpha 1A, 1B; conditions: cited from earlier work
# [5] = tested on: neuronal cultures; assay: Neuronal nuclear intensity / morphology; conditions: 24 hours
# [6] = molecular target: T1, Sigma-1 receptors (UniProt Q60492); conditions: cited from earlier work
# T1 construct: other: known prior art compounds, published studies
# [7] = tested on: caspase-3 in neuronal cultures; assay: Caspase-3 activity in neurons; type: cell-based
# [8] = tested on: caspase-3 in SKOV-3 human ovarian cancer cells; assay: Caspase-3 activity in tumor cells; type: cell-based
# [9] = tested on: Abeta oligomer-induced membrane trafficking deficits in primary hippocampal neurons; assay: Membrane trafficking/exocytosis (MTT) assay; type: cell-based, rat; conditions: for EC50: Rattus norvegicus, Hippocampal neuron
# Experimental: The methods used to generate the results were as follows in the Membrane Trafficking/Exocytosis (MTT) assay.
# Primary hippocampal neurons from E18 Sprague-Dawley rat embryos were plated at optimized concentrations in 384 well plates in NB media (Invitrogen). Neurons were maintained in cultures for 3 weeks, with twice weekly feeding of NB media with N2 supplement (Invitrogen).
# A test compound was added to cells at concentrations ranging from 100 uM to 0.001 nM followed by addition of vehicle or Abeta oligomer preparations (3 μM total Abeta protein concentration), and incubated for 1 to 24 hr at 37° C. in 5% CO2. MTT reagent (3-(4,5-dimethylthizaol-2-yl)-2,5diphenyl tetrazolium bromide) (Roche Molecular Biochemicals) was reconstituted in phosphate buffered saline to 5 mg/mL. 10 μl, of MTT labeling reagent is added to each well and incubated at 37° C. for 1 h, then imaged. Exocytosis was assessed by automated microscopy and image processing to quantify the amount of endocytosed and exocytosed formazan.
# Each assay plate was formatted so that compounds are tested with and without Abeta oligomer on each plate.
# [10] = tested on: Sigma-2 receptors; conditions: cited from earlier work; for Ki: Table 11E, clinical compounds, second figure of S1/S2, read-out: Sigma Affinity (S2)
# [11] = molecular target: VAChT (Homo sapiens, UniProt Q16572); conditions: cited from earlier work
# [12] = tested on: muscarinic M1, 2, D2; conditions: cited from earlier work
# [13] = molecular target: Sigma-1 receptors; conditions: Table 11E, clinical compounds; first figure of S1/S2; read-out: Sigma Affinity (S1); cited from earlier work
# [14] = tested on: alpha1 AR, 5-HT1a/2, H1; conditions: cited from earlier work
# [15] = tested on: 5-HT2A, B, C; conditions: cited from earlier work
# [16] = molecular target: NMDAR2A (Homo sapiens, UniProt Q12879); conditions: cited from earlier work
# [17] = molecular target: T2, sigma-2 receptor (Rattus norvegicus, UniProt Q5U3Y7); set-up: other: known prior art compounds, published studies; conditions: read-out: S2 binding Ki; Table 11C; cited from earlier work
# T2 sequence (Q5U3Y7 1-176): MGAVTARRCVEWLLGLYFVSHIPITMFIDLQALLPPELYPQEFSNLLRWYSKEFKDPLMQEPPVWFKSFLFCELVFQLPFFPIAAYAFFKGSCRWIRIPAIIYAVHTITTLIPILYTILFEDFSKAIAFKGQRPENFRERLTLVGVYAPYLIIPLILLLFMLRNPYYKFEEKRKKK
# [18] = molecular target: NMDAR2B (Homo sapiens, UniProt Q13224); conditions: cited from earlier work
# [19] = tested on: PCP; conditions: cited from earlier work
# Chain of D2 (P14416 whole entry): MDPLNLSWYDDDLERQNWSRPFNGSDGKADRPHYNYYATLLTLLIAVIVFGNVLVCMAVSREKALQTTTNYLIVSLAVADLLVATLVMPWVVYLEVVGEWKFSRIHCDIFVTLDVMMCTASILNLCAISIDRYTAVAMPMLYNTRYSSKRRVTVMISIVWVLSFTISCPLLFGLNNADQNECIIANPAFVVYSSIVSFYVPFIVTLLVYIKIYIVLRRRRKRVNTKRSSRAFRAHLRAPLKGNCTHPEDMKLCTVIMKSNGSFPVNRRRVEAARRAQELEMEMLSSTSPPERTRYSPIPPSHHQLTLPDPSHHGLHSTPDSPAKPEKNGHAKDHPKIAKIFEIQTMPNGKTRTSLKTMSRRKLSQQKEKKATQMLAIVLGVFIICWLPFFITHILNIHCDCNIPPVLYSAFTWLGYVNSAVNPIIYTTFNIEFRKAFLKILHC
# Chain of NMDAR2A (Q12879 23-1464, other chains not shown): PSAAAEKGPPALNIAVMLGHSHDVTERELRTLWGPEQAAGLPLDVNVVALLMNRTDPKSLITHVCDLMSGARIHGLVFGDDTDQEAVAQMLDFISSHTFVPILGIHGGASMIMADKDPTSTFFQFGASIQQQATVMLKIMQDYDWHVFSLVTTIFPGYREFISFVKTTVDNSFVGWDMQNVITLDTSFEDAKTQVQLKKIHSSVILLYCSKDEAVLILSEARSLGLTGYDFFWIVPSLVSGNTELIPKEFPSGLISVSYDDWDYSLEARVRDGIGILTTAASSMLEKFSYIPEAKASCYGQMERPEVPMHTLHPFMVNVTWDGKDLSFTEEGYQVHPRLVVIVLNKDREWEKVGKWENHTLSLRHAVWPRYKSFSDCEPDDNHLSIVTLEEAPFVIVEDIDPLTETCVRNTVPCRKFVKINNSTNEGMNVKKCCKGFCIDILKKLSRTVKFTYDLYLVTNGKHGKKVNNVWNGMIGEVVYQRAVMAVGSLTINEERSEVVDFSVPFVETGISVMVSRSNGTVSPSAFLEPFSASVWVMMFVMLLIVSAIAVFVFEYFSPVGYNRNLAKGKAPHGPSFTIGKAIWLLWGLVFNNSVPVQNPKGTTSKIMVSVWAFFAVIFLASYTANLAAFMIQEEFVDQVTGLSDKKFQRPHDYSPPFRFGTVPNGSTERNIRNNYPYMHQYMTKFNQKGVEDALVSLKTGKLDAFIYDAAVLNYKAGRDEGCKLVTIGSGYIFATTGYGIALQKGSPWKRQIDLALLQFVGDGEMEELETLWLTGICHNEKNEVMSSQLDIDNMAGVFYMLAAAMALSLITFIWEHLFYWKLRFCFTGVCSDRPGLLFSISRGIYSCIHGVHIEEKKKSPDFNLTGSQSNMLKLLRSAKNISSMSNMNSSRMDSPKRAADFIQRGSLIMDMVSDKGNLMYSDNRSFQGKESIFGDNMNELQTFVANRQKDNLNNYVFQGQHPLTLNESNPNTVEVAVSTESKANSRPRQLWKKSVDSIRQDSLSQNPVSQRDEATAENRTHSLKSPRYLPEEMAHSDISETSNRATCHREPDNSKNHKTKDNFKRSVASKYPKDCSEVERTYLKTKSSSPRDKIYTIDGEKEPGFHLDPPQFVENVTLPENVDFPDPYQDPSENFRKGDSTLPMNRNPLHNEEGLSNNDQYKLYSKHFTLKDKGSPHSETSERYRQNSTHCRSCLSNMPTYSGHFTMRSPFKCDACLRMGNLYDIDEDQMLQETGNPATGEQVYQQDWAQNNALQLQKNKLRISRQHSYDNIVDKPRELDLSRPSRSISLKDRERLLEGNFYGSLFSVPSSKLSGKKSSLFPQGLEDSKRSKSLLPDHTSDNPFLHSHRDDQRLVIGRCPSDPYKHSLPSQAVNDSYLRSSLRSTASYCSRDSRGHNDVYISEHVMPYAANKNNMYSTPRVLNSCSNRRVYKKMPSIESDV
# Chain of NMDAR2B (Q13224 27-1484, species assumed, other chains not shown): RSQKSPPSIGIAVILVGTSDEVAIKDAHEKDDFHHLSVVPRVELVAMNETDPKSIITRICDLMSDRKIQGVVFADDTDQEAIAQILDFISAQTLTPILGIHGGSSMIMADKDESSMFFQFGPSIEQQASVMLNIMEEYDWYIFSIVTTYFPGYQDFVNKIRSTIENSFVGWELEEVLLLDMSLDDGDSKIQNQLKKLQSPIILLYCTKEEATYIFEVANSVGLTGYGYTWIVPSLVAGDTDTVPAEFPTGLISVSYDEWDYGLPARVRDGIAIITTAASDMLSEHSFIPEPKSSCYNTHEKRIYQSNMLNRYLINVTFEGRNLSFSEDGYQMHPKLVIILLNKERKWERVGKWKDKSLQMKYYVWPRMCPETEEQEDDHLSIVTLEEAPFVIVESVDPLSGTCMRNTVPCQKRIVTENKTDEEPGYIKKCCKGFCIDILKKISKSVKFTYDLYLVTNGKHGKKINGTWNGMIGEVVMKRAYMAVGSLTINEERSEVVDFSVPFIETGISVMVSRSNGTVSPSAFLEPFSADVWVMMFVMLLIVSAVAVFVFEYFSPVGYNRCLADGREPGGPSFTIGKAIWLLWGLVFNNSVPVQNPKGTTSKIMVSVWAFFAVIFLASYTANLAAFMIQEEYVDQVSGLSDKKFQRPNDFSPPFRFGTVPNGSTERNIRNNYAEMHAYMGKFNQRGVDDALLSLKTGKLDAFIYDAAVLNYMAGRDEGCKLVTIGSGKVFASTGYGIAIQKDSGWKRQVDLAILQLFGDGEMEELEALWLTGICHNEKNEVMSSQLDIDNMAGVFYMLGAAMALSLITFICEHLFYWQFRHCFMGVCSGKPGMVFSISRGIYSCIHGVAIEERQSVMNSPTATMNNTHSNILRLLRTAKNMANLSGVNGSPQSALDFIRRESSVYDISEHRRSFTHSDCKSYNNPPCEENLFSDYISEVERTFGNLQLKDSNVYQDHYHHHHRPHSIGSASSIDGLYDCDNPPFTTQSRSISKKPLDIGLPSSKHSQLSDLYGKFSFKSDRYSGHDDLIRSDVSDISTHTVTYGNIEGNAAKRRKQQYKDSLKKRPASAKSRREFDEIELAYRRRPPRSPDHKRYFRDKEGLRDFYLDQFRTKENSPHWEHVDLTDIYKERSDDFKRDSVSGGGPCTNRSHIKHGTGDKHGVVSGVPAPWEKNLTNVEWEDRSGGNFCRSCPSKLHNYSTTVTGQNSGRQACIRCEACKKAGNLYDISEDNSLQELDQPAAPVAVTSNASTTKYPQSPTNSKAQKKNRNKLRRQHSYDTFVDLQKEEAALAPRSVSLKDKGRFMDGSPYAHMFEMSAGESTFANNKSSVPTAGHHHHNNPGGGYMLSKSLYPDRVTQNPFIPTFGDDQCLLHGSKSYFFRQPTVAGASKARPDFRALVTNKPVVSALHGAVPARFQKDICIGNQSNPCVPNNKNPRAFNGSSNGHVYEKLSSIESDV
# Chain of VAChT (Q16572 whole entry, species assumed): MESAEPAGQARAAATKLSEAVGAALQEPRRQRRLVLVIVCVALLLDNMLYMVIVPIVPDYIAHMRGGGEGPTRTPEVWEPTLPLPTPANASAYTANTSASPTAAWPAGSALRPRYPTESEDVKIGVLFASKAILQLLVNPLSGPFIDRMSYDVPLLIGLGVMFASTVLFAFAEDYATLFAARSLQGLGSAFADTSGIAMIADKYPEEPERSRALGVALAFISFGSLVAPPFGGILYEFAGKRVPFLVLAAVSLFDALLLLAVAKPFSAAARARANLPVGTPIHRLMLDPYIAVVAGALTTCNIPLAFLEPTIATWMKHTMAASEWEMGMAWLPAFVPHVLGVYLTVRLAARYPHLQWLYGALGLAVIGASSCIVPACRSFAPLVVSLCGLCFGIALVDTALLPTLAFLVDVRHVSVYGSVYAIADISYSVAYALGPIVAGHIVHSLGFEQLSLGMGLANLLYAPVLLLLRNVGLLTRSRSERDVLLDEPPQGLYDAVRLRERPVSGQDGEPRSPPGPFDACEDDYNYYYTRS
compound,measurement,setting,value
Fc1ccc(-n2cc(CCCCN3CCC4(CC3)OCc3ccccc34)c3ccccc32)cc1 [siramesine],Action,[1],Full agonist
same,Displacement of [3H]-RHM-1,[2],partially displace
same,Other Targets: D2,[3],"D2 (800 nM), alpha"
same,"Other Targets: alpha 1A, 1B",[4],"1A, 1B (300 nM)"
same,Nuclear morphology / nuclear intensity in neurons,[5],caused significant abnormal nuclear morphology
same,Ki,"[6]; read-out: S1 binding Ki, Table 11C",19 nM
same,Ki,"[6]; read-out: Sigma 1 Binding Ki, known prior art compounds, published studies",19 nM
same,Caspase-3 activity induced in neurons,[7],induced
same,Caspase-3 activity induced in tumor cells,[8],induced caspase-3 activity
same,Effect on Abeta oligomer trafficking deficits over the concentrations tested,[9],"blocks Abeta oligomer trafficking deficits at low concentrations, but causes cellular toxicity at high concentrations"
same,EC50,"[9]; Table 11C, known prior art compounds, read-out: Inhibition Abeta oligomer-induced Membrane Trafficking EC50",1.3 µM
same,Functional Neuronal Phenotype,[9]; Table 11C,Agonist
same,Sigma 2 type of activity,[10]; in brackets after the Ki,agonist
"COc1ccc(CCN2CCN(CCCc3ccccc3)CC2)cc1OC.Cl.Cl [Cutamesine, Cutamesine dihydrochloride]",Other Targets: VAChT,[11],"VAChT(50 nM),"
same,"Other Targets: muscarinic M1, 2, D2",[12],"D2 (2 uM), alpha1"
same,Ki,[13],17 nM
same,Ki,[10],> 1800 nM
same,"Other Targets: alpha1 AR, 5-HT1a/2, H1",[14],(2 uM)
OCCN1CCN(CCCN2c3ccccc3C=Cc3ccccc32)CC1 [Opipramol],"Other Targets: 5-HT2A, B, C",[15],"5-HT2A, B, C (120 nM"
same,"Other Targets: alpha 1A, 1B",[4],"1A, 1B(200 nM)"
same,Ki,[13],7 nM
same,Ki,[10],56 nM
"CC(C)=CCN1CCC2(C)c3cc(O)ccc3CC1C2C (centres unmarked) [Pentazocine, pentazocine]",Other Targets: 2A (NMDAR2A),[16],"uM), 2A (2.7 uM),"
same,Ki,[17],> 5000 nM
same,Other Targets: NMDAR2B,[18],NMDAR2B (2.5 uM
same,Other Targets: PCP,[19],PCP (2.9 uM)
same,EC50,[9]; read-out: Inhibition Abeta oligomer-induced Membrane Trafficking EC50 (uM),7.6 µM
same,Functional Neuronal Phenotype,[9]; Table 11C,Antagonist
same,Ki,[10],5000 nM
